Where “and” joins values, the source holds several entries; their conditions need not be identical. Identical values can stand only once.
Molecular target: T1, human TAS2R1 (Homo sapiens, UniProt Q9NYW7)
T1 construct: expressed in transfected cells; host or cells: HEK293T-Gα16gust44
T1 sequence (Q9NYW7 1-299): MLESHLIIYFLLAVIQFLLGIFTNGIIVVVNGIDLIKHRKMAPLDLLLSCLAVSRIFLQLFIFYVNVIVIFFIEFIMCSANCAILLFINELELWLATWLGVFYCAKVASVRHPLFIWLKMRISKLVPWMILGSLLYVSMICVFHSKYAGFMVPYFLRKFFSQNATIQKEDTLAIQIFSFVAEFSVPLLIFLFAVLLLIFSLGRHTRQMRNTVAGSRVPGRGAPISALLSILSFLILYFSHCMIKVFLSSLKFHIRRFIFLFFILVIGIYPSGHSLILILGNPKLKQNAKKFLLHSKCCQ
Assay: Calcium imaging assay (FLIPR), HEK293T-Gα16gust44 cells transfected with human TAS2R1
Format: cell-based
Method in brief: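 HEK293T-Gα16gust44 cells transiently transfected with the bitter-taste receptor, loaded next day with Fluo-4-AM plus 2.5 mM probenecid, and challenged with bile acids on FLIPR Tetra. Signals mock-subtracted, expressed as ΔF/F vs buffer.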

C[C@H](CCC(=O)O)[C@H]1CC[C@H]2[C@@H]3CC[C@@H]4C[C@H](O)CC[C@]4(C)[C@H]3C[C@H](O)[C@]12C [Deoxycholic Acid, deoxycholic acid]
Efficacy = maximal amplitude (ΔF/F) (TAS2R1, bile acids, mean): 0.1101 | Efficacy (maximal amplitude ΔF/F), individual data points (TAS2R1, bile acids, single replicates, listed as DCA): 0.109 and 0.1181 and 0.1032 | RLU (Time 0 s (second time grid)): 0 RLU | RLU (Time 2 s): 0.493 RLU | RLU (Time 4 s): 31.4027 RLU | RLU (Time 6 s): 3.521 RLU | RLU (Time 8 s): -1.537 RLU | RLU (Time 12 s): 14.8432 RLU | RLU (Time 14 s): 0.09676 RLU | RLU (Time 16 s): 17.8407 RLU | RLU (Time 18 s): -2.035 RLU | RLU (Time 18.781 s): -64.4563 RLU | RLU (Time 20.781 s): -74.4446 RLU | RLU (Time 22.781 s): -47.6337 RLU | RLU (Time 24.781 s): -3.248 RLU | RLU (Time 26.781 s): 25.7142 RLU | RLU (Time 28.781 s): 115.435 RLU | RLU (Time 30.781 s): 160.244 RLU | RLU (Time 32.781 s): 224.68 RLU | RLU (Time 34.781 s): 265.794 RLU | RLU (Time 36.781 s): 285.115 RLU | RLU (Time 38.781 s): 296.049 RLU | RLU (Time 40.781 s): 331.471 RLU | RLU (Time 42.781 s): 355.405 RLU | RLU (Time 44.781 s): 351.369 RLU | RLU (Time 46.781 s): 370.806 RLU | RLU (Time 48.781 s): 359.225 RLU | RLU (Time 50.781 s): 385.526 RLU | RLU (Time 52.781 s): 383.683 RLU | RLU (Time 54.781 s): 370.149 RLU | RLU (Time 56.781 s): 369.818 RLU | RLU (Time 58.781 s): 385.269 RLU | RLU (Time 60.781 s): 378.237 RLU | RLU (Time 62.781 s): 433.32 RLU | RLU (Time 64.781 s): 415.898 RLU | RLU (Time 66.781 s): 407.815 RLU | RLU (Time 68.781 s): 409.61 RLU | RLU (Time 70.781 s): 404.287 RLU | RLU (Time 72.781 s): 403.47 RLU | RLU (Time 74.781 s): 421.511 RLU | RLU (Time 76.781 s): 407.874 RLU | RLU (Time 78.781 s): 402.577 RLU | RLU (Time 80.781 s): 400.686 RLU | RLU (Time 82.781 s): 411.74 RLU | RLU (Time 84.781 s): 413.712 RLU | RLU (Time 86.781 s): 386.975 RLU | RLU (Time 88.781 s): 406.471 RLU | RLU (Time 90.781 s): 396.647 RLU | RLU (Time 92.781 s): 377.402 RLU | RLU (Time 94.781 s): 398.73 RLU | RLU (Time 96.781 s): 400.692 RLU | RLU (Time 98.781 s): 408.833 RLU | RLU (Time 100.781 s): 412.535 RLU | RLU (Time 102.781 s): 404.992 RLU | RLU (Time 104.781 s): 431.288 RLU | RLU (Time 106.781 s): 394.532 RLU | RLU (Time 108.781 s): 409.236 RLU | RLU (Time 110.781 s): 378.853 RLU | RLU (Time 112.781 s): 368.351 RLU | RLU (Time 114.781 s): 393.07 RLU | RLU (Time 116.781 s): 389.914 RLU | RLU (Time 118.781 s): 397.129 RLU | RLU (Time 120.781 s): 358.058 RLU | RLU (Time 122.781 s): 360.498 RLU | RLU (Time 124.781 s): 357.848 RLU | RLU (Time 126.781 s): 357.113 RLU | RLU (Time 128.781 s): 380.58 RLU | RLU (Time 130.781 s): 362.729 RLU | RLU (Time 132.781 s): 375.09 RLU | RLU (Time 134.781 s): 362.515 RLU | RLU (Time 136.781 s): 330.764 RLU | RLU (Time 137.547 s): 319.55 RLU | RLU (Time 143.547 s): 341.925 RLU | RLU (Time 149.547 s): 313.832 RLU | RLU (Time 155.547 s): 317.65 RLU | RLU (Time 161.547 s): 302.763 RLU | RLU (Time 167.547 s): 279.035 RLU | RLU (Time 173.547 s): 260.648 RLU | RLU (Time 179.547 s): 266.358 RLU | RLU (Time 185.547 s): 253.1 RLU | RLU (Time 191.547 s): 247.046 RLU | RLU (Time 197.547 s): 220.468 RLU | RLU (Time 203.547 s): 236.267 RLU | RLU (Time 209.547 s): 247.998 RLU | RLU (Time 215.547 s): 197.659 RLU | RLU (Time 221.547 s): 234.297 RLU | RLU (Time 227.547 s): 187.946 RLU | RLU (Time 233.547 s): 202.574 RLU | RLU (Time 239.547 s): 164.983 RLU | RLU (Time 245.547 s): 168.248 RLU | RLU (Time 293.547 s): 151.715 RLU | RLU (Time 299.547 s): 145.558 RLU | RLU (calcium trace, sheet TAS2R1, Time 305.547 s): 138.546 RLU | RLU (calcium trace, sheet TAS2R1, Time 311.547 s): 132.623 RLU | RLU (calcium trace, sheet TAS2R1, Time 317.547 s): 129.733 RLU | RLU (calcium trace, sheet TAS2R1, Time 323.547 s): 134.84 RLU | RLU (calcium trace, sheet TAS2R1, Time 329.547 s): 140.029 RLU | RLU (calcium trace, sheet TAS2R1, Time 335.547 s): 144.9 RLU | RLU (calcium trace, sheet TAS2R1, Time 341.547 s): 152.792 RLU | RLU (calcium trace, sheet TAS2R1, Time 347.547 s): 132.414 RLU | RLU (calcium trace, sheet TAS2R1, Time 353.547 s): 137.138 RLU | RLU (calcium trace, sheet TAS2R1, Time 359.547 s): 131.392 RLU | EC50 (calculated where receptor saturation was reached): 6.1 ± 0.6 µM | Activation threshold concentration TAS2R1 (lowest concentration with significantly increased fluorescence vs empty vector (p < 0.01)): 3 µM and 3.00 µM

Reference: paper PMC10247784, “Physiological activation of human and mouse bitter taste receptors by bile acids” (Communications Biology, 2023)
